This data set in a line: in vitro. Particulars: human, hela cells, % viability.

The text below walks through data of PMC12040169 (PLOS Biology, 2025).

The term viability denotes a read-out of living cells in per cent, often relative to untreated cells.

As for `Cc1ccc(OCc2nnc(SCC(=O)O)n2N)cc1` [CBK266603], the viability at 28.5 h, 10 µM stood at 95.8%.
For `O=C(CCCOc1ccccc1)NCc1ccc(OC2CCNCC2)cc1` [CBK028427T], the viability at 28.5 h, 10 µM worked out at 92.1%.
With `CC(C)CC(NC(=O)c1ccccc1)C(=O)OCC(=O)Nc1nc2ccccc2s1` (stereo not drawn) [CBK085134], the viability at 28.5 h, 10 µM amounted to 92.5%.
Consider `COc1ccc(CCC(=O)Nc2ncn(Cc3cccc(C)c3)n2)cc1` [CBK288227], for which the viability at 28.5 h, 10 µM is 91.7%.
On to `O=C(Cn1cccc2cc(C3CCCNC3)nc1-2)N1CCCCCC1` (stereo not drawn) [CBK285088], for which the viability at 28.5 h, 10 µM came out at 93.2%.
For `COc1ccc(Cl)cc1NC(=O)CCCn1cnc([N+](=O)[O-])n1` [CBK268882] the value was 83.2%.
The figure for `Cc1cc(C)nc(N2CCC(CC(=O)NC(C)CCN3CCCCCC3)CC2)n1` (stereo not drawn) [CBK285993] is 96.4%; for `FC(F)(F)c1ccnc(OCCN2CCNCC2)c1` [CBK113459] it is 97.4%.
With `CC(=O)N1CCC(c2nc(C3CCCC3)no2)C1` (stereo not drawn) [CBK285452], the viability at 28.5 h, 10 µM was determined as 104%.
For `CCN(CC)C(=O)CN(CCc1ccc(OC)c(OC)c1)C(=O)NCc1c(Cl)cccc1Cl` [CBK158743] the value was 89.9%; for `COc1cccc(C(=O)Nc2ccc(Br)cc2C(=O)O)c1` [CBK022487], 98.7%; for `CCOC(=O)C1=C(Nc2ccc([N+](=O)[O-])cc2)S/C(=C\c2ccc(O)c(OC)c2)C1=O` [CBK263873], 89.3%.
The figure for `Nc1nnc(-c2ccc(Oc3nc(N4CCOCC4)nc(N4CCOCC4)n3)cc2)s1` [CBK266305] is 96.1%; for `O=C1CO[C@H]2CN(S(=O)(=O)c3ccccc3)C[C@H]2N1c1ccccc1` [CBK289236] it is 93.7%; for `O=C1CC(c2ccccc2)c2c(n3ncnc3[nH]c2=O)N1` (stereo not drawn) [CBK287912] it is 89.4%.
The figure for `N/C(=N\OC(=O)COc1cccc2ccccc12)c1ccccn1` [CBK262999] is 96.2%; for `Clc1ccc(CN2CCN(c3nccnc3OC3CCCCC3)CC2)cc1` [CBK082826T] it is 101%; for `O=C(O)CCC(CCC(=O)O)C(=O)O` [CBK260994] it is 95.1%.
`O=C(NC(NCc1ccco1)C(Cl)(Cl)Cl)c1ccc(Br)cc1` (stereo not drawn) [CBK262174]: the viability at 28.5 h, 10 µM amounted to 89%.
For `CCOC(=O)c1cc2c(CNc3ccc(OC)nc3)cccc2o1` [CBK006086] the value was 91.7%; for `CCOc1ccccc1CNCc1ccccn1` [CBK268041C], 103%.
As for `Cc1c(C(=O)N2CCC(F)(CO)C2)nnn1-c1ccc2ncccc2c1` (stereo not drawn) [CBK304483], the viability at 28.5 h, 10 µM was 101%.
The figure for `Cc1nc(C2CCCN(C(=O)C3CCCO3)C2)c2sccn12` (stereo not drawn) [CBK282241] is 106%.
For `C=CCn1c(Cc2csc(NC(=O)c3cnc(SC)n3-c3ccccc3)n2)n[nH]c1=S` [CBK297786] the value was 84.3%; for `CCN(CC)CCNC(=O)c1c(C)[nH]c(/C=C2\C(=O)Nc3ccc(F)cc32)c1C` [CBK149343], 50.7%; for `CCCc1occc1C(=O)N1CCOCC1C(=O)O` (stereo not drawn) [CBK304151], 97.9%.
For `O=C(c1cccc(C(F)(F)F)c1)N1CCCC2(CCN(Cc3ccccc3)C2)C1` (stereo not drawn) [CBK137039] the value was 90.4%.
Turning to `CCC1CCCCN1C(=O)c1cccc(C)c1C` (stereo not drawn) [CBK081501], the viability at 28.5 h, 10 µM is 96.5%.
On to `O=C(O)/C=C/C(=O)N1N=C(c2ccc(F)cc2)CC12C(=O)Nc1ccccc12` (stereo not drawn) [CBK286747], for which the viability at 28.5 h, 10 µM is 88.9%.
With `NC(=O)C(=O)Nc1nc(-c2ccccc2)cs1` [CBK263005], the viability at 28.5 h, 10 µM was 98.4%.
On to `CCOc1cccc(-c2cncc(NCc3cccs3)n2)c1` [CBK066034], for which the viability at 28.5 h, 10 µM turned out to be 104%.
Turning to `CC(C)(C)c1ccc(S(=O)(=O)N2CCCCC2CCO)cc1[N+](=O)[O-]` (stereo not drawn) [CBK200067], the viability at 28.5 h, 10 µM was determined as 93.9%.
For `O=C(CCn1c(C(F)F)cc2cccnc21)NCc1ccncc1` [CBK285027] the value was 103%; for `Cc1cc(C[C@@H]2COC[C@H]2NCc2ccc(Cl)cc2)on1` [CBK285402], 93.3%.
Take `Cc1ccc(C(=O)Nc2cccc(-c3nc4ncccc4o3)c2C)cc1[N+](=O)[O-]` [CBK262793]: the viability at 28.5 h, 10 µM is 94.3%.
In the case of `CS(=O)(=O)c1ccc(-c2nccnc2N[C@@H]2CCN(Cc3ccccc3)C2)cc1` [CBK037667], the viability at 28.5 h, 10 µM worked out at 102%.
For `CS(=O)(=O)Nc1cc(-c2noc([C@@H]3CCCN3Cc3ccncc3)n2)ccn1` [CBK288886] the value was 83.5%; for `COCCN(Cc1cnn(C)c1)C(=O)c1nc2ccccn2c1F` [CBK306892], 100%; for `CC(Cn1cc(Cl)cn1)C(=O)N1CCN(C)CC1c1ccccc1` (stereo not drawn) [CBK282016], 111%.
As to `COc1cccc(-c2nnc(SCC(=O)Nc3cccc([N+](=O)[O-])c3)n2C)c1` [CBK266074], the viability at 28.5 h, 10 µM was found to be 106%.
Consider `COc1cc(/C=N/c2ccc(O)c(-c3nc4ccccc4s3)c2)ccc1OC(=O)c1ccc(Cl)cc1Cl` [CBK261243], for which the viability at 28.5 h, 10 µM amounted to 101%.
The figure for `O=C(O)c1ccc(-n2nnnc2SCc2ccccc2)cc1` [CBK287161] is 93.6%.
As to `O=C(Cn1cnc2c(Cl)cc(Cl)cc2c1=O)N1CCCCCC1` [CBK305874], the viability at 28.5 h, 10 µM worked out at 92%.
The figure for `CN(Cc1nc2c(s1)CCCC2)C(=O)COc1ccc2nncn2n1` [CBK306758] is 98.9%; for `Cc1nn(C)cc1-c1cncn1CCN(C)C1CCCC1` [CBK281780] it is 95.8%.
The figure for `O=S1(=O)C=C(SCCN2CCCCC2)c2ccccc21` [CBK265328] is 92.6%; for `COc1cc(C#N)ccc1Oc1ccc([N+](=O)[O-])cn1` [CBK002569] it is 108%.
Regarding `O=C(NC1CCc2ccccc21)N1CCN(c2ccccc2)CC1` (stereo not drawn) [CBK155208], the viability at 28.5 h, 10 µM came to 92.2%.
For `CN1CCN(c2nc(NCCNc3ccc([N+](=O)[O-])cc3)c3ccccc3n2)CC1` [CBK266949] the value was 77.5%.
The figure for `c1ccc(CCN2CCN(Cc3cccnc3)CC2)cc1` [CBK126424] is 103%; for `Cc1cc(C(=O)N2CCCC2c2ccc[nH]2)c2c(C)noc2n1` (stereo not drawn) [CBK305245] it is 91.5%.
Regarding `Cc1onc(-c2ccccc2)c1CNC(=O)c1cncnc1` [CBK144098], the viability at 28.5 h, 10 µM worked out at 90.6%.
Regarding `Cc1n[nH]c(C)c1CCC(=O)N/N=C\c1ccc(Cl)c(Cl)c1` [CBK263395], the viability at 28.5 h, 10 µM turned out to be 97.4%.
The figure for `CCC1CCCCN1C(=O)C1CCCCC1` (stereo not drawn) [CBK084528] is 90%; for `NCCCNC(=O)c1cc2ccccc2[nH]1` [CBK267639] it is 88.4%; for `COc1ccc(COc2nc3ccccc3nc2NC(C)C)cc1OC` [CBK116610] it is 93.5%.
As to `Cc1nn(C)c(N2CCNCC2)c1NC(=O)c1cccs1` [CBK050303T], the viability at 28.5 h, 10 µM amounted to 91.9%.
Consider `CC1CNCCN1C(=O)c1cnn(-c2cccc(Cl)c2)c1` (stereo not drawn) [CBK304238], for which the viability at 28.5 h, 10 µM was found to be 94.1%.
With `Cc1nn(Cc2cccc(C(=O)Nc3ccc(S(=O)(=O)N4CCCCC4)cc3)c2)c(C)c1Cl` [CBK265815], the viability at 28.5 h, 10 µM was 81.9%.
The figure for `S=c1[nH]nc(COc2ccc(Cl)cc2Cl)[nH]1` [CBK288511] is 80.3%; for `CN(C)CCNC(=O)c1cccc(-c2cnc3[nH]c(=O)n(C4CCCCC4)c3n2)c1` [CBK064191] it is 103%.
For `CC(C)C(=O)Nc1cc2ccccc2c(-c2ccc(N(C)C)cc2)n1` [CBK085776] the value was 90.6%; for `CC(C)(C)c1ccc(N(C2CCNCC2)S(=O)(=O)c2cccc(C(F)(F)F)c2)cc1` [CBK165056T], 114%; for `Nc1ncc(-c2ccc(C(=O)N3CCOCC3)cc2)nc1-c1cccnc1` [CBK126356], 106%.
Turning to `FC(F)(F)c1cccc(-c2cn3ccnc3c(NCCc3ccccn3)n2)c1` [CBK066491], the viability at 28.5 h, 10 µM was 95.4%.
For `Nc1nc(COc2ccc(F)cc2)nc(N2CCOCC2)n1` [CBK288183], the viability at 28.5 h, 10 µM was determined as 91.5%.
As to `Nc1nc(N)n(-c2ccccc2)n1` [CBK026515], the viability at 28.5 h, 10 µM was 104%.
The figure for `Cc1ccc(SCCNC(=O)CSc2n[nH]c(=O)n2C2CC2)cc1` [CBK295605] is 120%; for `Cc1ccccc1-c1noc(C(C)NC(=O)C2(Cn3ccnc3)CC2)n1` (stereo not drawn) [CBK306684] it is 99.7%.
The figure for `CS(=O)(=O)c1ccc(-c2ccc(C(=O)N3CCN(C(=O)OCc4ccccc4)CC3)cn2)cc1` [CBK160189] is 107%.
With `COCCC(=O)Nc1cnc(-c2ccc(F)c(Cl)c2)c(-c2cccnc2)n1` [CBK036938], the viability at 28.5 h, 10 µM was 95.2%.
The figure for `CCOc1ccc(NC(=O)N(C)Cc2noc(CC(C)C)n2)cc1C#N` [CBK307089] is 85.2%; for `COc1ccc(C(=O)Nc2cc(C)c3c(=O)oc4ccccc4c3n2)cc1OC` [CBK287442] it is 89%; for `O=C(Nc1ccc2c(c1)OCO2)c1ccc(-c2ccccc2)nc1NCCc1ccccn1` [CBK076574] it is 102%.
Consider `CCNC(=O)C1=C(C(=O)NCC)N2C(=NC(C)(C)c3ccccc32)S1` [CBK010172], for which the viability at 28.5 h, 10 µM was determined as 102%.
Consider `Cc1ccc(OCc2nnc(SCC(=O)c3cccs3)n2-c2ccccc2)cc1C` [CBK265033], for which the viability at 28.5 h, 10 µM was found to be 101%.
For the molecule `O=C(CCCn1ccnc1)Nc1ccc(OC2CCCC2)cc1` [CBK281986], the viability at 28.5 h, 10 µM is 92.3%.
As for `CCN1CCN(C(=O)c2cccn2C)CC1` [CBK200248], the viability at 28.5 h, 10 µM was 84.7%.
As to `Cc1cc(NC(=O)c2nn(-c3ncccn3)c3ccccc23)n(C)n1` [CBK048505], the viability at 28.5 h, 10 µM was determined as 92.3%.
For the molecule `COc1ccccc1Cc1cccc(C2CCN(C(=O)Cc3ccccc3)CC2)n1` [CBK286240], the viability at 28.5 h, 10 µM turned out to be 88.1%.
The figure for `OCc1nnn(-c2ccncc2)c1CO` [CBK288549] is 96.8%.
